How the values were obtained:
[1] = tested on: corn rootworm larvae; experiment: Corn rootworm greenhouse bioassay (2 gal pot); assay type: in vivo; details: Iowa scale 1-6
From the text: (§1) Hybrid corn seeds with and without an insecticidal coating are planted in Nebraska, Iowa, Minnesota, Wisconsin and Illinois to determine the efficacy of various coated seed treatments in standard tests. All seeds contain a Captan pretreatment whether or not a coating is applied. Additionally, an overcoat layer is applied to all coated seed which comprises the coating described in Example 2. Banded granular insecticides are applied at the manufactures label rates using granular insecticide applicators. Plot size for each treatment is two ten foot rows spaced 30 inches apart with four replications of each treatment at each location. Non-diaposing 1st instar Western Corn Rootworm larvae are side dressed on both sides of the corn plants in the row at a rate of 800 eggs per foot of row. Application of the insect larvae is made when the corn seedlings are approximately at the two leaf stage. The placement of the larvae is approximately two inches to the side of the corn plants and two inches below the soil surface. Plots are maintained with normal cultural practices until the corn plants reach the flowering stage. At late brown silk stage, 10 sequential roots from each plot are obtained. The corn stalks are cut at approximately 12 inches above the soil line. Each corn root is washed and after washing the roots are rated on a scale of 1-6 using the Iowa Root Rating Method developed at Iowa State University (Hills and Peters, 1971) and used commonly throughout the corn belt. In the rating, 1=no damage or only a few minor feeding scars; 2=feeding scars evident but no roots eaten off to within 1½ inch of the plant; 3=several roots eaten off to within 1½ inch of the plant but never the equivalent of an entire node of roots is destroyed; 4=one root node completely destroyed; 5=two root nodes completely destroyed and 6=three or more root nodes destroyed. A destroyed root is defined as a root that has been pruned to within 1½ inch of the base. […] In addition, a growth chamber and a greenhouse bioassay was used to determine the effect of insecticidal seed coating on corn rootworm control. For growth chamber assay, corn seed was planted in a 16 oz cup with garden Jiffymix, and allowed to grow for two weeks. Twenty neonate corn rootworm larvae are placed in the Jiffymix near corn roots and allowed to feed for approximately 2 weeks. The larvae are then screened out and the % mortality of the larvae is determined. Each corn root is washed and after washing the roots are rated on a scale of 1-6 using the Iowa Root Rating Method developed at Iowa State University (Hills and Peters, 1971). Some of the results are indicated below in Table 3. The greenhouse assay use 2 gallon pot with 20 mesh corn field soil. Forty corn rootworm larvae are placed in each pot when corn plant was at 4 to 5-leaf stage, and allowed to feed for 2 to 3 weeks. Each corn root is washed and after washing the roots are rated on a scale of 1-6 using the Iowa Root Rating Method developed at Iowa State University (Hills and Peters, 1971). Some of the results are indicated below in Table 3.
(§2) Maize seed is treated as described in Examples 1 and 2. A combination of methyl cellulose and polyvinyl alcohol is used as a binder and Celite 266 is used as filler for insecticide solution, which contains the compound of formula II as the insecticide. Bioassay methods are as described in Example 4. Root rating was based on the Iowa State 1-6 scale.

[2] = tested on: corn rootworm larvae; experiment: Corn rootworm growth chamber bioassay (16 oz cup); assay type: in vivo; details: Iowa scale 1-6
From the text: as §1, §2

| Structure (SMILES) | Greenhouse (2 gal pot) Root Rating ([1]; 0.6 mg/seed) | Greenhouse (2 gal pot) Root Rating ([1]; 1.2 mg/seed) | Greenhouse (2 gal pot) Root Rating ([1]; 1.5 mg/seed) | Greenhouse (2 gal pot) Root Rating ([1]; 2.0 mg/seed) | Growth Chamber (16 oz cup) Root Rating ([2]; 0.01 mg/seed (combination: plus Raze 0.13 mg/seed)) | Growth Chamber (16 oz cup) Root Rating ([2]; 0.03 mg/seed) | Growth Chamber (16 oz cup) Root Rating ([2]; 0.3 mg/seed (combination: plus Raze 0.13 mg/seed)) | Growth Chamber (16 oz cup) Root Rating ([2]; 0.6 mg/seed) | Growth Chamber (16 oz cup) Root Rating ([2]; 0.8 mg/seed) | Growth Chamber (16 oz cup) Root Rating ([2]; 1.0 mg/seed) | Greenhouse (2 gal pot) Root Rating ([1]; 1.0 mg/seed) |
| --- | --- | --- | --- | --- | --- | --- | --- | --- | --- | --- | --- |
| CN1COCN(Cc2cnc(Cl)s2)/C1=N/[N+](=O)[O-] [Formula II] | 2.73 | 3.08 | 2.96 | 2.90 | 5.30 | 4.30 | 2.70 | 2.10 | 2.30 | 2.10 | – |
| Cc1c(F)c(F)c(COC(=O)[C@@H]2[C@H](/C=C(\Cl)C(F)(F)F)C2(C)C)c(F)c1F [Tefluthrin 50%, tefluthrin, reference compound] | – | – | – | – | – | – | – | – | – | 2.30 | 3.52 |

Reference: patent US20020177526A1, “Insecticidal seed coating” (priority 1996, published 2002)
